In patent US5741811A, “Polythiophene anti-tumor agents” (Purdue Research Foundation, priority 1996, dated 1998):
Where two headings read alike, the source gives them in different places.

Tests used:
Assay in all cases: NCI human tumor cell line panel growth inhibition
Type in all cases: cell-based
[1] = system: A549/ATCC lung cancer cells; conditions: for GI50: Homo sapiens, read-out: Log10 GI50 (converted)
[2] = system: HOP-18 lung cancer cells; conditions: for GI50: Homo sapiens, read-out: Log10 GI50 (converted)
[3] = system: HOP-62 lung cancer cells; conditions: for GI50: Homo sapiens, read-out: Log10 GI50 (converted)
[4] = system: NCI-H226 lung cancer cells; conditions: for GI50: Homo sapiens, read-out: Log10 GI50 (converted)
[5] = system: NCI-H322M lung cancer cells; conditions: for GI50: Homo sapiens, read-out: Log10 GI50 (converted)
[6] = system: NCI-H460 lung cancer cells; conditions: for GI50: Homo sapiens, read-out: Log10 GI50 (converted)
[7] = system: LXPL-529 lung cancer cells; conditions: for GI50: Homo sapiens, read-out: Log10 GI50 (converted)
[8] = system: COLO-205 colon cancer cells; conditions: COLO-205, colon cancer; for GI50: Homo sapiens, read-out: Log10 GI50 (converted)
[9] = system: DLD-1 colon cancer cells; conditions: for GI50: Homo sapiens, read-out: Log10 GI50 (converted)
[10] = system: HCC-2998 colon cancer cells; conditions: for GI50: Homo sapiens, read-out: Log10 GI50 (converted)
[11] = system: HCT-116 colon cancer cells; conditions: for GI50: Homo sapiens, read-out: Log10 GI50 (converted)
[12] = system: HCT-15 colon cancer cells; conditions: for GI50: Homo sapiens, read-out: Log10 GI50 (converted)
[13] = system: HT29 colon cancer cells; conditions: for GI50: Homo sapiens, HT-29, read-out: Log10 GI50 (converted)
[14] = system: KM20L2 colon cancer cells; conditions: for GI50: Homo sapiens, KM-20L2, read-out: Log10 GI50 (converted)
[15] = system: OVCAR-8 ovarian cancer cells; conditions: for GI50: Homo sapiens, read-out: Log10 GI50 (converted)
Description: (§1) The first screen measures the cytotoxicity against a panel of sixty different human tumor cell lines. This assay provides data regarding the general cytotoxicity of an individual compound.
(§2) The length of a bar is indicative of differential cytotoxicity against a specific type of tumor cells or tumor panels.
(§3) The antitumor cytotoxicity of the thiophene compounds tested in the first two in vitro assays was measured by a microculture assay using either 3-(4,5-dimethylthiazol-2-yl)-2,5-diphenyltetrazolium bromide (MTT) or sulforhodamine B (SRB). [M. R. Boyd in "Principles and Practices of Oncology," V. T. DeVita, Jr., S. Hellman and S. A. Rosenberg (Eds.), Vol. 3, PPO Updates, Number 10, 1989.] This assay has an advantage over in vivo assay in that results are obtained within a week as opposed to several months. The assay was carried out in 96-well microtiter plates. The MTT assay is based on the production of a dark blue formazan product by dehydrogenase in the mitochondria of live tumor cells after exposure to drug for 6 days [M. C. Alley, D. A. Scudiero, A. Monks, M. L. Hursey, M. J. Czerwinski, D. L. Fine, B. J. Abbott, J. G. Mayo, R. H. Shoemaker and M. R. Boyd, Cancer Res., 48, 589, 1988.] Thus, only live cells are stained and can be measured at 570 nm. The SRB assay is based on the binding of the anionic group to the basic amino acid residues of cellular proteins after exposure of tumor cells to drug for 2 days [P. Skehan, R. Storeng, D. Scudiero, A. Monks, J. McMahon, D. Vistica, J. T. Warren, H. Bohesch, S. Kenney and M. R. Boyd, J. Nat. Cancer Inst., 82, 1107, 1990.] Thus, the total protein (viability) can be measured at 564 nm.

[16] = system: SW-620 colon cancer cells; conditions: for GI50: Homo sapiens, read-out: Log10 GI50 (converted)
Description: as §1, §2, §3

[17] = system: SNB-19 CNS cancer cells
[18] = system: HOP-92 lung cancer cells
Text: (§4) The cytotoxic activity of the present polythiophene compounds have been measured utilizing three different assays or screens. The first screen measures the cytotoxicity against a panel of sixty different human tumor cell lines. This assay provides data regarding the general cytotoxicity of an individual compound. In particular this type of assay is useful in identifying compounds which have enhanced cytotoxic activity against slow growing tumors as compared to faster growing tumor cells such as leukemia tumor cell lines. The identification of such compounds is critical since previously identified antitumor agents have low cytotoxic activity against slower growing tumors. […] The specificity of a cytotoxic compound for tumor cell lines relative to normal cells is an important characteristic of an effective antitumor agent.
as §2, §3

[19] = system: KM12 colon cancer cells
Text: as §4, §2, §3

[20] = system: OVCAR-4 ovarian cancer cells
Text: as §4, §2, §3

[21] = system: UACC-257 melanoma cells; conditions: for GI50: Homo sapiens, read-out: Log10 GI50 (converted)
[22] = system: UACC-62 melanoma cells; conditions: for GI50: Homo sapiens, read-out: Log10 GI50 (converted)
[23] = system: IGROV-1 ovarian cancer cells; conditions: for GI50: Homo sapiens, read-out: Log10 GI50 (converted)
[24] = system: OVCAR-3 ovarian cancer cells; conditions: for GI50: Homo sapiens
[25] = system: OVCAR-5 ovarian cancer cells; conditions: for GI50: Homo sapiens, read-out: Log10 GI50 (converted)
[26] = system: SK-OV-3 ovarian cancer cells; conditions: for GI50: Homo sapiens, read-out: Log10 GI50 (converted)
[27] = system: A-498 renal cancer cells; conditions: for GI50: Homo sapiens, A498, read-out: Log10 GI50 (converted)
[28] = system: CAKI-1 renal cancer cells; conditions: for GI50: Homo sapiens
[29] = system: RXF-393 renal cancer cells; conditions: for GI50: Homo sapiens, read-out: Log10 GI50 (converted)
[30] = system: TK-10 renal cancer cells; conditions: for GI50: Homo sapiens, read-out: Log10 GI50 (converted)
[31] = system: EKVX lung cancer cells; conditions: read-out: Log10 GI50 (converted)
[32] = system: NCI-H23 lung cancer cells; conditions: read-out: Log10 GI50 (converted)
[33] = system: NCI-H522 lung cancer cells; conditions: read-out: Log10 GI50 (converted)
[34] = system: SF-268 CNS cancer cells; conditions: read-out: Log10 GI50 (converted)
[35] = system: SF-295 CNS cancer cells; conditions: read-out: Log10 GI50 (converted)
[36] = system: SNB-75 CNS cancer cells; conditions: Homo sapiens, read-out: Log10 GI50 (converted)
[37] = system: U251 CNS cancer cells; conditions: Homo sapiens, U-251, read-out: Log10 GI50 (converted)
[38] = system: LOX IMVI melanoma cells; conditions: read-out: Log10 GI50 (converted)
[39] = system: MALME-3M melanoma cells; conditions: read-out: Log10 GI50 (converted)
[40] = system: M-14 melanoma cells; conditions: M14, read-out: Log10 GI50 (converted)
[41] = system: SK-MEL-2 melanoma cells; conditions: read-out: Log10 GI50 (converted)
[42] = system: 786-0 renal cancer cells; conditions: read-out: Log10 GI50 (converted)
[43] = system: ACHN renal cancer cells; conditions: read-out: Log10 GI50 (converted)
[44] = system: RXF-631 renal cancer cells; conditions: Homo sapiens, read-out: Log10 GI50 (converted)
[45] = system: SN12C renal cancer cells; conditions: read-out: Log10 GI50 (converted)
[46] = system: UO-31 renal cancer cells; conditions: read-out: Log10 GI50 (converted)
[47] = system: XP-498 CNS cancer cells; conditions: read-out: Log10 GI50 (converted)
Description: as §1, §2, §3

[48] = system: SK-MEL-28 melanoma cells; conditions: read-out: Log10 GI50 (converted)
Text: as §4, §2, §3

[49] = OVCAR-3, ovarian cancer, read-out: Log10 GI50 (converted)
[50] = CAKI-1, renal cancer, read-out: Log10 GI50 (converted)

OCc1ccc(-c2ccc(CO)s2)s1 [drawing 33]
Log10 GI50 [1]: -5.91 M
Log10 GI50 [2]: -5.51 M
Log10 GI50 [3]: -5.52 M
Log10 GI50 [4]: -7.60 M
Log10 GI50 [5]: -5.77 M
Log10 GI50 [6]: -6.29 M
Log10 GI50 [7]: -6.33 M
Log10 GI50 [8]: -6.22 M
Log10 GI50 [9]: -4.74 M
Log10 GI50 [10]: -6.40 M
Log10 GI50 [11]: -5.27 M
Log10 GI50 [12]: -4.19 M
Log10 GI50 [13]: -5.04 M
Log10 GI50 [14]: -6.15 M
Log10 GI50 [15]: -5.23 M
Log10 GI50 [16]: -5.04 M
Log10 GI50 [17]: -4.72 M
Log10 GI50 [18]: -4.09 M
Log10 GI50 [19]: -4.35 M
Log10 GI50 [20]: -4.46 M
Log10 GI50 [21]: -6.00 M
Log10 GI50 [22]: -6.36 M
Log10 GI50 [23]: -6.57 M
Log10 GI50 ([24]; OVCAR-3, ovarian cancer): -5.70 M
Log10 GI50 [25]: -6.06 M
Log10 GI50 [26]: -5.80 M
Log10 GI50 [27]: -7.71 M
Log10 GI50 ([28]; CAKI-1, renal cancer): -6.63 M
Log10 GI50 [29]: -7.05 M
Log10 GI50 [30]: -6.29 M

CC(=O)OCc1ccc(-c2ccc(-c3cccs3)s2)s1
GI50 [1]: 6.61 µM
GI50 [31]: 24.5 µM
GI50 [2]: 2.34 µM
GI50 [3]: 24 µM
GI50 [32]: 19.5 µM
GI50 [4]: 0.324 µM
GI50 [5]: 19.5 µM
GI50 [6]: 1.51 µM
GI50 [33]: 13.2 µM
GI50 [7]: < 0.01 µM
GI50 [8]: 0.437 µM
GI50 [9]: < 0.01 µM
GI50 [10]: 24.5 µM
GI50 [12]: 50.1 µM
GI50 [13]: 30.2 µM
GI50 [14]: 0.132 µM
GI50 [34]: 24.5 µM
GI50 [35]: 18.2 µM
GI50 [36]: < 0.01 µM
GI50 [37]: < 0.01 µM
GI50 [38]: 24 µM
GI50 [39]: 32.4 µM
GI50 [40]: 39.8 µM
GI50 [41]: 72.4 µM
GI50 [21]: 0.0933 µM
GI50 [22]: 17 µM
GI50 [23]: 5.01 µM
GI50 [24, 49]: 0.0257 µM
GI50 [25]: 26.3 µM
GI50 [26]: 91.2 µM
GI50 [42]: 18.6 µM
GI50 [27]: 0.0437 µM
GI50 [43]: 17.8 µM
GI50 [28, 50]: 0.0182 µM
GI50 [29]: 18.2 µM
GI50 [44]: < 0.01 µM
GI50 [45]: 28.8 µM
GI50 [30]: 0.12 µM
GI50 [46]: 18.6 µM

OCc1ccc(-c2cccs2)s1
GI50 [1]: 8.91 µM
GI50 [2]: 10.5 µM
GI50 [3]: 9.77 µM
GI50 [4]: 0.316 µM
GI50 [5]: 30.2 µM
GI50 [6]: 1.35 µM
GI50 [33]: 95.5 µM
GI50 [7]: 0.288 µM
GI50 [8]: 3.63 µM
GI50 [9]: 0.316 µM
GI50 [11]: 4.57 µM
GI50 [12]: 35.5 µM
GI50 [13]: 8.51 µM
GI50 [14]: 1.58 µM
GI50 [15]: 52.5 µM
GI50 [16]: 4.68 µM
GI50 [47]: 3.72 µM
GI50 [35]: 38 µM
GI50 [36]: 0.389 µM
GI50 [37]: 0.457 µM
GI50 [21]: 0.933 µM
GI50 ([24]; OVCAR-3, read-out: Log10 GI50 (converted)): 2.34 µM
GI50 [25]: 12.9 µM
GI50 [42]: 32.4 µM
GI50 ([28]; CAKI-1, read-out: Log10 GI50 (converted)): 0.224 µM
GI50 [29]: 57.5 µM
GI50 [44]: 0.813 µM
GI50 [30]: 0.234 µM
GI50 [46]: 38.9 µM

O=Cc1ccc(-c2ccc(-c3cccs3)s2)s1 [drawing 32]
GI50 [1]: 32.4 µM
GI50 [31]: 55 µM
GI50 [32]: 55 µM
GI50 [4]: 0.0245 µM
GI50 [5]: 42.7 µM
GI50 [6]: 13.8 µM
GI50 [33]: 32.4 µM
GI50 [7]: < 0.01 µM
GI50 [8]: 5.37 µM
GI50 [9]: 7.94 µM
GI50 [10]: 17.8 µM
GI50 [11]: 0.0631 µM
GI50 [12]: 24 µM
GI50 [13]: 24.5 µM
GI50 [14]: 0.49 µM
GI50 [15]: 53.7 µM
GI50 [16]: 0.537 µM
GI50 [34]: 87.1 µM
GI50 [35]: 69.2 µM
GI50 [36]: 31.6 µM
GI50 [39]: 79.4 µM
GI50 [40]: 63.1 µM
GI50 [41]: 30.9 µM
GI50 ([20]; Homo sapiens, read-out: Log10 GI50 (converted)): 30.9 µM
GI50 [48]: 89.1 µM
GI50 [21]: 0.0468 µM
GI50 [22]: 0.01 µM
GI50 [23]: 0.0603 µM
GI50 [24, 49]: 0.0302 µM
GI50 [25]: 0.138 µM
GI50 [26]: 87.1 µM
GI50 [42]: 43.7 µM
GI50 [27]: 0.0437 µM
GI50 [43]: 51.3 µM
GI50 [28, 50]: 0.0138 µM
GI50 [29]: 16.6 µM
GI50 [45]: 47.9 µM
GI50 [30]: 0.525 µM
GI50 [46]: 41.7 µM

OCc1ccc(-c2ccc(-c3ccc(-c4cccs4)s3)s2)s1
GI50 [4]: 5.89 µM
GI50 [7]: 1.05 µM
GI50 [47]: 11 µM
GI50 [21]: 10.7 µM
GI50 [23]: 1.12 µM
GI50 [28, 50]: 0.617 µM
GI50 [44]: 11 µM
GI50 [30]: 0.891 µM
